The subject of assay [1] is non-expressing oocytes. The assay is classed as cell-based, Xenopus laevis. The note with it: for Total [3H]CQ transport, trans-stimulation by injected solute / Trans-stimulation data: total [3H]CQ transport: non-expressing oocytes; for Total [3H]CQ transport, trans-stimulation by injected solute / Trans-stimulation data: total [3H]CQ transport / Trans-stimulation: total [3H]CQ transport, non-expressing oocytes: footnote b: highest intracellular concentration tested was 30 mM (solubility); for Trans-stimulation data: total [3H]CQ transport: normalised to the oocyte type control (control = 100); for Trans-stimulation: total [3H]CQ transport, non-expressing oocytes: mean ± SEM, SEM. How it is done: (§1) Unless specified otherwise, the transport assays were conducted over 1.5 h at 27.5 °C and the reaction buffer was ND96 (96 mM NaCl, 2 mM KCl, 1 mM MgCl2, 1.8 mM CaCl2, 10 mM MES and 10 mM Tris-base) at pH 5.5.
The intracellular concentrations were calculated using previous estimates of the volume of stage V–VI oocytes (~400 nL[60]). […] The oocytes were injected with VF-6 suspended in 25 nL ND96 buffer adjusted to pH 5.0, 5.5, 6.0 or 7.0, which corresponded to the injection of 2.5–250 fmol of H^+. The Na^+-dependence of the trans-stimulatory effect of VF-6 was assessed by injecting the oocytes with VF-6 suspended in ND96 buffer (pH 5.5) or a Na^+-free version of this buffer (the Na^+ was replaced with choline).
(§2) At least four independent experiments were performed (on different days and using oocytes from different frogs), and within each experiment measurements were made from ten oocytes per treatment.

Assay [2] concerns non-expressing oocytes. The assay can be described thus: cells. In kind it is cell-based, Xenopus laevis.
Description: The orientation of PfCRT in the parasite’s DV membrane, and also in the oocyte plasma membrane, is such that its N- and C-termini extend into the cytosol. The oocytes were suspended in a reaction buffer adjusted to pH 5.5 to mimic the pH of the DV lumen[1],[2]. In this scenario, the transport of a substrate via PfCRT from the acidic extracellular solution into the oocyte cytosol[15] is analogous to the parasite’s PfCRT-mediated efflux of a substrate from the acidic DV and into the cytosol. Unless specified otherwise, this is the direction in which substrate transport was measured in the oocyte assays.
as §1
Ten oocytes were washed twice with the relevant ND96 buffer. […] The assay was terminated by removing the reaction buffer and washing the oocytes with ice-cold ND96 buffer. The oocytes were lysed in 10% (w/v) sodium dodecyl sulfate (SDS) and the radioactivity accumulated within each oocyte was measured with a MicroBeta^2 microplate liquid scintillation analyser (PerkinElmer).
as §2

Assay [3] deals with PfCRT^Ecu1110 (Plasmodium falciparum, UniProt Q9N623, A220S/I356L/K76T/N326D). The assay is described as follows: cell-based. In kind it is cell-based. The note with it: for Total [3H]CQ transport, trans-stimulation by injected solute / Trans-stimulation data: total [3H]CQ transport: PfCRTEcu1110 oocytes; for Total [3H]CQ transport, trans-stimulation by injected solute / Trans-stimulation data: total [3H]CQ transport / Trans-stimulation: total [3H]CQ transport, PfCRTEcu1110 oocytes: footnote b: highest intracellular concentration tested was 30 mM (solubility); for Trans-stimulation data: total [3H]CQ transport: normalised to the oocyte type control (control = 100); for Trans-stimulation data: PfCRT-mediated [3H]CQ transport: footnote b: due to solubility the highest intracellular concentration tested was 30 mM, normalised to the oocyte type control = 100; for Trans-stimulation: total [3H]CQ transport, PfCRTEcu1110 oocytes: mean ± SEM, SEM. The essentials:
(§3)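 Transport measured in Xenopus oocytes expressing the transporters, 1.5 h at 27.5 °C in ND96 pH 5.5 unless noted. For trans-stimulation, VF-6 injected in 25 nL ND96 at pH 5.0–7.0 or Na^+-free (choline) buffer; intracellular levels based on ~400 nL oocyte volume. Ten oocytes per treatment, ≥4 experiments.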

Assay [4] deals with PfCRT^3D7 (Plasmodium falciparum, UniProt Q8IBZ9). The assay can be described thus: cell-based. In kind it is cell-based. The note with it: for Trans-stimulation data: PfCRT-mediated [3H]CQ transport: 2nd of 6 trans-stimulation columns, footnote b: due to solubility the highest intracellular concentration tested was 30 mM, normalised to the oocyte type control = 100; for Total [3H]CQ transport, trans-stimulation by injected solute / Trans-stimulation data: total [3H]CQ transport: PfCRT3D7 oocytes; for Total [3H]CQ transport, trans-stimulation by injected solute / Trans-stimulation data: total [3H]CQ transport / Trans-stimulation: total [3H]CQ transport, PfCRT3D7 oocytes: footnote b: highest intracellular concentration tested was 30 mM (solubility); for Trans-stimulation data: total [3H]CQ transport: normalised to the oocyte type control (control = 100); for Trans-stimulation: total [3H]CQ transport, PfCRT3D7 oocytes: mean ± SEM, SEM. In outline: as §3

Assay [5] concerns the target T1, PfNT1 (Plasmodium falciparum, UniProt Q8IDM6).
T1 construct: expressed in transfected cells; host or cells: Xenopus laevis oocytes (stage V-VI), cRNA-injected
The assay can be described thus: cell-based. The assay is classed as cell-based. The conditions noted are these: footnote b: highest intracellular concentration tested was 30 mM (solubility); for Total [3H]CQ transport, trans-stimulation by injected solute / Trans-stimulation data: total [3H]CQ transport: PfNT1 oocytes; for Trans-stimulation data: total [3H]CQ transport: normalised to the oocyte type control (control = 100); for Trans-stimulation: total [3H]CQ transport, PfNT1 oocytes: mean ± SEM, SEM. The essentials: as §3

Assay [6] has as its target PfCRT^Dd2 (Plasmodium falciparum, UniProt Q9N623, A220S/I356T/K76T/M74I/N326S/N75E/Q271E/R371I). The assay is described as follows: cell-based. In kind it is cell-based. The conditions noted are these: for Total [3H]CQ transport, trans-stimulation by injected solute / Trans-stimulation data: total [3H]CQ transport: PfCRTDd2 oocytes; for Total [3H]CQ transport, trans-stimulation by injected solute / Trans-stimulation data: total [3H]CQ transport / Trans-stimulation: total [3H]CQ transport, PfCRTDd2 oocytes: footnote b: highest intracellular concentration tested was 30 mM (solubility); for Trans-stimulation data: total [3H]CQ transport: normalised to the oocyte type control (control = 100); for PfCRT-mediated [3H]CQ transport, trans-stimulation by injected solute, PfCRTDd2 / Trans-stimulation data: PfCRT-mediated [3H]CQ transport: footnote b: due to solubility the highest intracellular concentration tested was 30 mM; for PfCRT-mediated [3H]CQ transport, trans-stimulation by injected solute, PfCRTDd2: background subtracted; for Trans-stimulation data: PfCRT-mediated [3H]CQ transport: normalised to the oocyte type control = 100; for Trans-stimulation: total [3H]CQ transport, PfCRTDd2 oocytes: mean ± SEM, SEM. The essentials:
as §3

“And” between values parts separate entries of the source, which are not always exact repeats. Equal entries are not always repeated.

T1 sequence (Q8IDM6 whole entry): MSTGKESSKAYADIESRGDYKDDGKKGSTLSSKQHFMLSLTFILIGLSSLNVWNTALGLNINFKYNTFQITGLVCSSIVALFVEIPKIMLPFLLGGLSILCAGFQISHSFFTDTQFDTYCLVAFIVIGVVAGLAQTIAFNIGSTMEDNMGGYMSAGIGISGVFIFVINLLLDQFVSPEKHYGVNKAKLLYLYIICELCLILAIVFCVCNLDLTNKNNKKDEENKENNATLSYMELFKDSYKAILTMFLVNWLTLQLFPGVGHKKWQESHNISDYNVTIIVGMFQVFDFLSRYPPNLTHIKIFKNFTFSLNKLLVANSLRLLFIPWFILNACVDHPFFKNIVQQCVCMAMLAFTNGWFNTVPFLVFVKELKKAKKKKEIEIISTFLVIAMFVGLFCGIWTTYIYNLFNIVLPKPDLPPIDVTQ
Sequence of PfCRT^Dd2 (Q9N623 whole entry A220S/I356T/K76T/M74I/N326S/N75E/Q271E/R371I): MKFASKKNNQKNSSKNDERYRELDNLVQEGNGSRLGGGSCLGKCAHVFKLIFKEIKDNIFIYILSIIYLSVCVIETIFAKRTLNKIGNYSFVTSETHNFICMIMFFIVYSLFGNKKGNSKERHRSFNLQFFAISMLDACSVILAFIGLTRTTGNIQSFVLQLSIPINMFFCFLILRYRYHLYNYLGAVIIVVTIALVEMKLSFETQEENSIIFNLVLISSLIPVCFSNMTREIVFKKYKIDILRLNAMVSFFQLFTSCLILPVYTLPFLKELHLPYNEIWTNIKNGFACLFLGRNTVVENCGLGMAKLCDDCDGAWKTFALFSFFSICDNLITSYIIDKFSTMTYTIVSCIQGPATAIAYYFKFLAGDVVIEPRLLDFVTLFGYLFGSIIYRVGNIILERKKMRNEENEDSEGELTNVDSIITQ
Sequence of PfCRT^Ecu1110 (Q9N623 whole entry A220S/I356L/K76T/N326D): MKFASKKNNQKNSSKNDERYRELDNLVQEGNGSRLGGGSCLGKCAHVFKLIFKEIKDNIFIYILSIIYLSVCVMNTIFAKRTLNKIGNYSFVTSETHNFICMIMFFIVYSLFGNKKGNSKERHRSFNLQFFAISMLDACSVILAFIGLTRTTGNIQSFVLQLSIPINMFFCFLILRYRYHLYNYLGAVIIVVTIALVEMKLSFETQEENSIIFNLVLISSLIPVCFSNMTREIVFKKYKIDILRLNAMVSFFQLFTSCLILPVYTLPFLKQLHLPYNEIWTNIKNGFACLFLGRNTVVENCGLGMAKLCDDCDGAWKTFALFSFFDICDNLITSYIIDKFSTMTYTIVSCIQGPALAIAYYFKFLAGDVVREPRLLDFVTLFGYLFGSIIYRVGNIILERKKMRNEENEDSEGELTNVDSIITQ
Sequence of PfCRT^3D7 (Q8IBZ9 59-398): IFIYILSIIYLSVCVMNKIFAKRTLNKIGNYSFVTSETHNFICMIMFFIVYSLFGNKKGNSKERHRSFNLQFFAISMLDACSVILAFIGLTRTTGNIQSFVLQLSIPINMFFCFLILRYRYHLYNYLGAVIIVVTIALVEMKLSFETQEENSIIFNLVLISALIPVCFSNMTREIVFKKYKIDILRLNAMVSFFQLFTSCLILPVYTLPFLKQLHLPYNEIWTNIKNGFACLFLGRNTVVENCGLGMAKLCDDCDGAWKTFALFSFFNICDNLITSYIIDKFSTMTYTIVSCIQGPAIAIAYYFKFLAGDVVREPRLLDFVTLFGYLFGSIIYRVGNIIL

Take `C[N+](C)(C)CCO` [Choline]: the “Trans-stimulation data: total [3H]CQ transport, normalised to the oocyte type control” value in assay [1] is 99 ± 2.8 and 100 ± 2.6. The “Cis-inhibition data: total [3H]CQ transport, normalised to the oocyte type control” value in assay [2] was 100 ± 5.4 and 99 ± 4.3 and 98 ± 3.6.
As for `NCCCNCCCCNCCCN` [Spermine], the “Trans-stimulation data: total [3H]CQ transport, normalised to the oocyte type control” value in assay [1] was 99 ± 3.8 and 98 ± 2.9. For the same compound, the “Cis-inhibition data: total [3H]CQ transport, normalised to the oocyte type control” value in assay [2] is 99 ± 3.7 and 99 ± 4.1 and 100 ± 4.8.
Consider “DDEGDDDPVPLPNVNA [DA-16, additional peptide, 16 residues]”, for which the “Total [3H]CQ transport, trans-stimulation by injected solute” value (“Total … by injected solute” for short) is 2.6 ± 0.08b % of the PfCRTDd2 control in assay [1]; 33 ± 1.8b % of the PfCRTDd2 control in assay [3]; 3.1 ± 0.02b % of the PfCRTDd2 control in assay [4]; 3.3 ± 0.07b % of the PfCRTDd2 control in assay [5]; 99 ± 2.7b % of the PfCRTDd2 control in assay [6]. Moreover, the “Trans-stimulation data: total [3H]CQ transport” value in assay [1] turned out to be 98 ± 3.5b; in assay [3], 99 ± 3.7b; in assay [4], 100 ± 4.5b; in assay [5], 99 ± 2.4b; in assay [6], 99 ± 2.7b. Besides, the “Trans-stimulation data: PfCRT-mediated [3H]CQ transport” value (shortened to “Trans-stimulation data: PfCRT-mediated”) in assay [3] is 98 ± 2.9b; in assay [4], 97 ± 2.2b; in assay [6] it was 100 ± 1.9b. The “PfCRT-mediated [3H]CQ transport, trans-stimulation by injected solute, PfCRTDd2” value (from here on “PfCRT-mediated [3H]CQ transport … PfCRTDd2”) in assay [6] is 100 ± 1.9b % of PfCRTDd2 control.
As to “FESFGDLSTPDAVMGNPKVK [FK-20, additional peptide, 20 residues]”, the “Total … by injected solute” value in assay [1] is on record as 2.7 ± 0.06b % of the PfCRTDd2 control; in assay [3], 32 ± 1.7b % of the PfCRTDd2 control; in assay [4] it was 3.1 ± 0.05b % of the PfCRTDd2 control; in assay [5], 4.2 ± 0.03b % of the PfCRTDd2 control; in assay [6], 101 ± 4.7b % of the PfCRTDd2 control. The “Trans-stimulation data: total [3H]CQ transport” value in assay [1] turned out to be 100 ± 4.8b; in assay [3] it was 99 ± 2.9b; in assay [4], 101 ± 2.7b; in assay [5] it was 100 ± 4.2b; in assay [6] it was 101 ± 4.7b. Besides, the entries for the “Trans-stimulation data: PfCRT-mediated” value in assay [3], in assay [4] and in assay [6] were 97 ± 2.0b, 98 ± 1.7b and 98 ± 4.3b, respectively. Moreover, the “PfCRT-mediated [3H]CQ transport … PfCRTDd2” value in assay [6] is on record as 98 ± 4.3b % of PfCRTDd2 control.
As to GTFATLSELHCDK [GK-13], in assay [1], the “Trans-stimulation: total [3H]CQ transport, non-expressing oocytes” value is 2.6 ± 0.05b % of PfCRTDd2 control and the “Trans-stimulation data: total [3H]CQ transport” value is 100 ± 3.8b. Also, in assay [3], the “Trans-stimulation data: total [3H]CQ transport” value is on record as 99 ± 2.2b; the “Trans-stimulation: total [3H]CQ transport, PfCRTEcu1110 oocytes” value is given as 32 ± 1.5b % of PfCRTDd2 control; the “Trans-stimulation data: PfCRT-mediated” value worked out at 97 ± 1.9b. In assay [4], the “Trans-stimulation data: PfCRT-mediated” value turned out to be 98 ± 4.1b; the “Trans-stimulation data: total [3H]CQ transport” value came to 100 ± 3.6b; the “Trans-stimulation: total [3H]CQ transport, PfCRT3D7 oocytes” value is given as 3.1 ± 0.04b % of PfCRTDd2 control. In assay [5], the “Trans-stimulation data: total [3H]CQ transport” value amounted to 99 ± 2.7b and the “Trans-stimulation: total [3H]CQ transport, PfNT1 oocytes” value is 2.6 ± 0.04b % of PfCRTDd2 control. In assay [6], the “Trans-stimulation data: total [3H]CQ transport” value turned out to be 97 ± 2.7b; the “PfCRT-mediated [3H]CQ transport … PfCRTDd2” value is 95 ± 1.3b % of PfCRTDd2 control; the “Trans-stimulation: total [3H]CQ transport, PfCRTDd2 oocytes” value is 97 ± 2.7b % of PfCRTDd2 control; the “Trans-stimulation data: PfCRT-mediated” value stood at 95 ± 1.3b.
On to LTPEEKSAVTAL [LL-12], for which, in assay [1], the “Trans-stimulation: total [3H]CQ transport, non-expressing oocytes” value was 3.2 ± 0.08b % of PfCRTDd2 control and the “Trans-stimulation data: total [3H]CQ transport” value is listed as 99 ± 2.4b. In assay [3], the “Trans-stimulation data: total [3H]CQ transport” value is recorded as 100 ± 2.2b; the “Trans-stimulation: total [3H]CQ transport, PfCRTEcu1110 oocytes” value is 33 ± 1.0b % of PfCRTDd2 control; the “Trans-stimulation data: PfCRT-mediated” value amounted to 98 ± 1.7b. Further, in assay [4], the “Trans-stimulation data: PfCRT-mediated” value stood at 97 ± 3.4b; the “Trans-stimulation data: total [3H]CQ transport” value was 99 ± 2.7b; the “Trans-stimulation: total [3H]CQ transport, PfCRT3D7 oocytes” value was 3.1 ± 0.05b % of PfCRTDd2 control. Further, in assay [5], the “Trans-stimulation data: total [3H]CQ transport” value amounted to 99 ± 2.5b and the “Trans-stimulation: total [3H]CQ transport, PfNT1 oocytes” value is recorded as 2.2 ± 0.06b % of PfCRTDd2 control. Besides, in assay [6], the “Trans-stimulation data: total [3H]CQ transport” value is given as 100 ± 2.8b; the “PfCRT-mediated [3H]CQ transport … PfCRTDd2” value is recorded as 98 ± 1.1b % of PfCRTDd2 control; the “Trans-stimulation: total [3H]CQ transport, PfCRTDd2 oocytes” value is 100 ± 2.8b % of PfCRTDd2 control; the “Trans-stimulation data: PfCRT-mediated” value is on record as 98 ± 1.1b.
As for “LTPEEKSAVTALWGKVNVDEVGGEA [LA-25, additional peptide, 25 residues]”, the “Total … by injected solute” value in assay [1] is on record as 2.5 ± 0.04b % of the PfCRTDd2 control; in assay [3], 33 ± 1.8b % of the PfCRTDd2 control; in assay [4], 3.1 ± 0.02b % of the PfCRTDd2 control; in assay [5], 2.7 ± 0.07b % of the PfCRTDd2 control; in assay [6], 100 ± 3.3b % of the PfCRTDd2 control. Further, the “Trans-stimulation data: total [3H]CQ transport” value in assay [1] was 101 ± 3.3b; in assay [3], 101 ± 4.3b; in assay [4], 99 ± 2.6b; in assay [5], 101 ± 4.1b; in assay [6] it was 100 ± 3.3b. Further, the “Trans-stimulation data: PfCRT-mediated” value came to 98 ± 4.2b in assay [3], 97 ± 3.1b in assay [4] and 97 ± 3.3b in assay [6]. Moreover, in assay [6], the “PfCRT-mediated [3H]CQ transport … PfCRTDd2” value is 97 ± 3.3b % of PfCRTDd2 control.

These data come from paper PMC7413254 (Nature Communications, 2020).
